From US7319098B2, “1,3-dioxoisoindole derivatives having selective antagonism of T-type calcium channel” (Korea Institute of Science and Technology, priority 2006, dated 2008) come the findings set out here.

The experiment concerns the target T1, α1G T-type Ca2+ channels (Homo sapiens, UniProt O43497).
T1 construct: expressed in transfected cells; host or cells: HEK293 cells stably expressing α1G and Kir2.1
The experiment can be described thus: Screening of activity against T-type calcium channel with FDSS6000 (fluorescence, KCl-induced [Ca2+]i increase). It counts as cell-based. As to conditions: HEK293 cells expressing α1G and Kir2.1, read-out: Inhibitory effect (%) of T-type calcium channel, Inhibition (%); for inhibition at 10 µM: NA: Not Active. As to the method:
Meanwhile, the antagonistic activity of the novel compound of Formula (1) herein against T-type calcium channel was tested as described below. The synthesized compounds were tested for the activity against T-type calcium channel with FDSS6000. Compounds with good activity were selected and IC50 values were exactly obtained by using electrophysiological whole cell patch clamp method. HEK293 cells which stably express both α1G and Kir2.1 subunits were grown in Dulbecco's modified Eagle's medium supplemented with 10% (v/v) fetal bovine serum, penicillin (100 U/mL), streptomycin (100 μg/mL), geneticin (500 μg/mL), and +puromycin (I μg/mL) at 37° C. in a humid atmosphere of 5% CO2 and 95% air. Cells were seeded into 96-well black wall clear bottom plates at a density of 4×10^4 cells/well and were used the next day for high-throughput screening (HTS) FDSS6000 assay. For FDSS6000 assay, cells were incubated for 60 min at room temperature with 5 μM fluo3/AM and 0.001% Pluronic F-127 in a HEPES-buffered solution composed of (in mM): 115 NaCl, 5.4 KCl, 0.8 MgCl2, 1.8 CaCl2, 20 HEPES, 13.8 glucose (pH 7.4). During the fluorescence-based FDSS6000 assay, cells in HEPES-buffered solution containing 10 mM CaCl2 were pretreated with a certain concentration of test compounds and then treated with high concentration of KCl ([…]). α1G T-type Ca^2+ channels were activated by using high concentration of KCl (70 mM) and the increase in [Ca^2+]i by KCl-induced depolarization was detected. During the whole procedure, cells were washed using the BIO-TEK 96-well washer. All data were collected and analyzed using FDSS6000 and related software (Hamamatsu, Japan). The IC50 results of examining the inhibitory effects of the compounds herein selected with FDSS6000 on the calcium influx through the T-type calcium channel are provided in TABLEs 1 and 2.

T1 sequence (O43497 whole entry): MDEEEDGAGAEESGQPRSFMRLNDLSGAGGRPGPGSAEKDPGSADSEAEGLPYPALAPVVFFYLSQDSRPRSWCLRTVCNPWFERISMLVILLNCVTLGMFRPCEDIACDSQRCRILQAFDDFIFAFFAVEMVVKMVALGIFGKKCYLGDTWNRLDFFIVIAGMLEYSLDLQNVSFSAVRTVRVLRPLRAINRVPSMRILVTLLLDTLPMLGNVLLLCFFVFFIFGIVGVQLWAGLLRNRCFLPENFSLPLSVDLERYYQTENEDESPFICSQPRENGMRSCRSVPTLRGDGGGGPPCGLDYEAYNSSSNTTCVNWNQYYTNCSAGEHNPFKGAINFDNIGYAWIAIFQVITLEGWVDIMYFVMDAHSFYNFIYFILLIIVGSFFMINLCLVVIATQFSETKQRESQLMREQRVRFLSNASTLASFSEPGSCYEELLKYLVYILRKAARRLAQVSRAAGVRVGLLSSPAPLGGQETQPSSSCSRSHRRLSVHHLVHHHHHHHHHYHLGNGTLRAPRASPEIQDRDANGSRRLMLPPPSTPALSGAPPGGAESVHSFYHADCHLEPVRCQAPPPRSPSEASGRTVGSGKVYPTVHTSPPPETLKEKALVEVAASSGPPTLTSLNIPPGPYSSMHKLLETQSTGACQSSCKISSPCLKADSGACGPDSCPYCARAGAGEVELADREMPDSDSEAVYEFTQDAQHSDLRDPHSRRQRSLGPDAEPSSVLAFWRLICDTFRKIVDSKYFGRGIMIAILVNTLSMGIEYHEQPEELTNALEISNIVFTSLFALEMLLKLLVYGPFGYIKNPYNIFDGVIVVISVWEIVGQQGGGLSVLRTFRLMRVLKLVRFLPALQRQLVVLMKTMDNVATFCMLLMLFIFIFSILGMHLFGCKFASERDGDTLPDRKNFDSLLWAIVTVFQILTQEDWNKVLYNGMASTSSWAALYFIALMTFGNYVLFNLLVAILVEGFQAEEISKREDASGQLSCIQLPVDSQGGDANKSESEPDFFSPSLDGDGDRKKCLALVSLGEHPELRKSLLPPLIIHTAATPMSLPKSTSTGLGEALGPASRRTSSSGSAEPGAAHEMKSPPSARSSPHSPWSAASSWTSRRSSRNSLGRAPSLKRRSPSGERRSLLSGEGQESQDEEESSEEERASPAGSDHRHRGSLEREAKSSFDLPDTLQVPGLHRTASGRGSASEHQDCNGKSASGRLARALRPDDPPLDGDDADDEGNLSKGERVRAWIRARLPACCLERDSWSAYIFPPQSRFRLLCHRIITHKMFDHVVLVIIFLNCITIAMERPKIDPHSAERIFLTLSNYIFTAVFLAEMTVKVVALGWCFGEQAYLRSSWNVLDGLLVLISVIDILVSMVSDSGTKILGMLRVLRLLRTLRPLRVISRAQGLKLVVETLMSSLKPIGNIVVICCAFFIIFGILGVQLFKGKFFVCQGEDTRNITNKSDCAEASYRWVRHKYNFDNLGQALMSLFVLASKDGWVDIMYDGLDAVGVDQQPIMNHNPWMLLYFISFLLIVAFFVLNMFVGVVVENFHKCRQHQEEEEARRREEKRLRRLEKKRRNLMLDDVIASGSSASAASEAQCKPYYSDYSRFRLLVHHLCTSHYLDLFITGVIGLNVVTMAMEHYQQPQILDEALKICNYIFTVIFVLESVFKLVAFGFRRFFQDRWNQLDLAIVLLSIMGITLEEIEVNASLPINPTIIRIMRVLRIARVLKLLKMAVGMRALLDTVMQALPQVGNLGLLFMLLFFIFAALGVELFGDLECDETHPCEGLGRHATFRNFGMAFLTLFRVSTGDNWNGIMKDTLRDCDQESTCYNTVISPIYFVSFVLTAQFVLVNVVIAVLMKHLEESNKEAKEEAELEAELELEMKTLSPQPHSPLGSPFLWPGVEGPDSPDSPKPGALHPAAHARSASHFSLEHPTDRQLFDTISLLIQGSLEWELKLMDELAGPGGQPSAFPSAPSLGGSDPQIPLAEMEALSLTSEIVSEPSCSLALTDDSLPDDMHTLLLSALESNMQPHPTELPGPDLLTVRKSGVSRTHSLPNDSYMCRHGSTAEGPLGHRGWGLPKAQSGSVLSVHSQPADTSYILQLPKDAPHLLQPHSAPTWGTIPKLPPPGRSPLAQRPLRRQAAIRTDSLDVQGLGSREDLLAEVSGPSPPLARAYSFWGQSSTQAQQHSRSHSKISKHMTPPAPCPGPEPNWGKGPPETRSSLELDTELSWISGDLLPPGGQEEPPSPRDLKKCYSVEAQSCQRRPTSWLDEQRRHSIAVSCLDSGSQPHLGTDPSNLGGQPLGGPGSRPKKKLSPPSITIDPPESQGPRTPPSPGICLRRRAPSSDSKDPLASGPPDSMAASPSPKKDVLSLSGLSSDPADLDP

As for `O=C(NCCN1CCCCC1)c1ccc2c(c1)C(=O)N(c1ccccc1Cl)C2=O` [Compound 25, 1-(2-{[2-(2-chloro-phenyl)-1,3-dioxo-2,3-dihydro-1H-isoindol-5-carbonyl]-amino}-ethyl)-piperidinium chloride], the inhibition at 100 µM is 38.2%.
`O=C(NCCN1CCCCC1)c1ccc2c(c1)C(=O)N(c1cccc(Cl)c1)C2=O` [Compound 26, 1-(2-{[2-(3-chloro-phenyl)-1,3-dioxo-2,3-dihydro-1H isoindol-5-carbonyl]-amino}-ethyl)-piperidinium chloride]: the inhibition at 100 µM worked out at 52.7%.
With `O=C(NCCN1CCCCC1)c1ccc2c(c1)C(=O)N(c1ccc(Cl)cc1)C2=O` [Compound 27, 1-(2-{[2-(4-chloro-phenyl)-1,3-dioxo-2,3-dihydro-1H-isoindol-5-carbonyl]-amino}-ethyl)-piperidinium chloride], the inhibition at 100 µM was 44.5%.
Still for that read-out and setting: with `Cc1ccccc1N1C(=O)c2ccc(C(=O)NCCN3CCCCC3)cc2C1=O` [Compound 28, 1-{2-[(1,3-dioxo-2-o-tolyl-2,3-dihydro-1H-isoindol-5-carbonyl)-amino]-ethyl}-piperidinium chloride] the figure was 45.6%; with `Cc1ccccc1N1C(=O)c2ccc(C(=O)NCCCN3CCCCC3C)cc2C1=O` (centres unmarked) [Compound 29, 1-{3-[(1,3-dioxo-2-o-tolyl-2,3-dihydro-1H-isoindol-5-carbonyl)-amino]-propyl}-2-methyl-piperidinium chloride], 53.8%; with `Cc1ccccc1N1C(=O)c2ccc(C(=O)NCCN3CCCC3)cc2C1=O` [Compound 30, 1-{2-[(1,3-dioxo-2-o-tolyl-2,3-dihydro-1H-isoindol-5-carbonyl)-amino]-ethyl}-pyrrolidinium chloride], 33.6%.
In the case of `Cc1ccccc1N1C(=O)c2ccc(C(=O)NCCN3CCOCC3)cc2C1=O` [Compound 32, 4-{2-[(1,3-dioxo-2-o-tolyl-2,3-dihydro-1H-isoindol-5-carbonyl)-amino]-ethyl}-4-morpholinium chloride], the inhibition at 100 µM was 22.3%.
The same measure, in the same setting: with `Cc1cccc(N2C(=O)c3ccc(C(=O)NCCN4CCCCC4)cc3C2=O)c1` [Compound 33, 1-{2-[(1,3-dioxo-2-m-tolyl-2,3-dihydro-1H-isoindol-5-carbonyl)-amino]-ethyl}-piperidinium chloride] the figure was 64.5%.
For the compound `Cc1cccc(N2C(=O)c3ccc(C(=O)NCCCN4CCCCC4C)cc3C2=O)c1` (centres unmarked) [Compound 34, 1-{3-[(1,3-dioxo-2-m-tolyl-2,3-dihydro-1H-isoindol-5-carbonyl)-amino]-propyl}-2-methyl-piperidinium chloride], the inhibition at 10 µM was found to be 10%.
The same measure, in the same setting: next, `Cc1cccc(N2C(=O)c3ccc(C(=O)NCCN4CCCC4)cc3C2=O)c1` [Compound 35, 1-{2-[(1,3-dioxo-2-m-tolyl-2,3-dihydro-1H-isoindol-5-carbonyl)-amino]-ethyl}-pyrrolidinium chloride]: 4.7%; `Cc1cccc(N2C(=O)c3ccc(C(=O)NCCCN4CCCC4)cc3C2=O)c1` [Compound 36, 1-{3-[(1,3-dioxo-2-m-tolyl-2,3-dihydro-1H-isoindol-5-carbonyl)-amino]-propyl}-pyrrolidinium chloride]: 5.3%; `Cc1cccc(N2C(=O)c3ccc(C(=O)NCCN4CCOCC4)cc3C2=O)c1` [Compound 37, 4-{2-[(1,3-dioxo-2-m-tolyl-2,3-dihydro-1H-isoindol-5-carbonyl)-amino]-ethyl}-4-morpholinium chloride]: 1.3%.
Still for that read-out and setting: next, `Cc1cccc(N2C(=O)c3ccc(C(=O)NCCCN4CCOCC4)cc3C2=O)c1` [Compound 38, 4-{3-[(1,3-dioxo-2-m-tolyl-2,3-dihydro-1H-isoindol-5-carbonyl)-amino]-propyl}-4-morpholinium chloride]: 4.2%.
As to `Cc1ccc(N2C(=O)c3ccc(C(=O)NCCN4CCCCC4)cc3C2=O)cc1` [Compound 39, 1-{2-[(1,3-dioxo-2-p-tolyl-2,3-dihydro-1H-isoindol-5-carbonyl)-amino]-ethyl}-piperidinium chloride], the inhibition at 100 µM stood at 39.4%.
As for `Cc1ccc(N2C(=O)c3ccc(C(=O)NCCCN4CCCCC4C)cc3C2=O)cc1` (centres unmarked) [Compound 40, 1-{3-[(1,3-dioxo-2-p-tolyl-2,3-dihydro-1H-isoindol-5-carbonyl)-amino]-propyl}-2-methyl-piperidinium chloride], the inhibition at 10 µM was 11.7%.
Still for that read-out and setting: next, `Cc1ccc(N2C(=O)c3ccc(C(=O)NCCN4CCCC4)cc3C2=O)cc1` [Compound 41, 1-{2-[(1,3-dioxo-2-p-tolyl-2,3-dihydro-1H-isoindol-5-carbonyl)-amino]-ethyl}-pyrrolidinium chloride]: 2%.
With `COc1cccc(N2C(=O)c3ccc(C(=O)NCCN4CCCCC4)cc3C2=O)c1` [Compound 46, 1-(2-{[2-(3-methoxy-phenyl)-1,3-dioxo-2,3-dihydro-1H-isoindol-5-carbonyl]-amino}-ethyl)-piperidinium chloride], the inhibition at 100 µM worked out at 31.4%.
Take `COc1ccc(N2C(=O)c3ccc(C(=O)NCCN4CCCCC4)cc3C2=O)cc1` [Compound 48, 1-(2-{[2-(4-methoxy-phenyl)-1,3-dioxo-2,3-dihydro-1H-isoindol-5-carbonyl]-amino}-ethyl)-piperidinium chloride]: the inhibition at 100 µM was 31.4%.
Still for that read-out and setting: next, `O=C(NCCN1CCCCC1)c1ccc2c(c1)C(=O)N(Cc1ccccc1)C2=O` [Compound 49, 1-{2-[(2-benzyl-1,3-dioxo-2,3-dihydro-1H-isoindol-5-carbonyl)-amino]-ethyl}-piperidinium chloride]: 72.4%; `CC1CCCCN1CCCNC(=O)c1ccc2c(c1)C(=O)N(Cc1ccccc1)C2=O` (centres unmarked) [Compound 50, 1-{3-[(2-benzyl-1,3-dioxo-2,3-dihydro-1H-isoindol-5-carbonyl)-amino]-propyl}-2-methyl-piperidinium chloride]: 69.6%.
The same measure, in the same setting: with `O=C(NCCN1CCCC1)c1ccc2c(c1)C(=O)N(Cc1ccccc1)C2=O` [Compound 51, 1-{2-[(2-benzyl-1,3-dioxo-2,3-dihydro-1H-isoindol-5-carbonyl)-amino]-ethyl}-pyrrolidinium chloride] the figure was 48.4%.
Still for that read-out and setting: with `O=C(NCCCN1CCCC1)c1ccc2c(c1)C(=O)N(Cc1ccccc1)C2=O` [Compound 52, 1-{3-[(2-benzyl-1,3-dioxo-2,3-dihydro-1H-isoindol-5-carbonyl)-amino]-propyl}-pyrrolidinium chloride] the figure was 45.8%; with `O=C(NCCN1CCOCC1)c1ccc2c(c1)C(=O)N(Cc1ccccc1)C2=O` [Compound 53, 4-{2-[(2-benzyl-1,3-dioxo-2,3-dihydro-1H-isoindol-5-carbonyl)-amino]-ethyl}-4-morpholinium chloride], 42.5%; with `O=C(NCCCN1CCOCC1)c1ccc2c(c1)C(=O)N(Cc1ccccc1)C2=O` [Compound 54, 4-{3-[(2-benzyl-1,3-dioxo-2,3-dihydro-1H-isoindol-5-carbonyl)-amino]-propyl}-4-morpholinium chloride], 38.5%.
Consider `O=C(NCCN1CCCCC1)c1ccc2c(c1)C(=O)N(Cc1ccccc1F)C2=O` [Compound 55, 1-(2-{[2-(2-fluoro-benzyl)-1,3-dioxo-2,3-dihydro-1H-isoindol-5-carbonyl]-amino}-ethyl)-piperidinium chloride], for which the inhibition at 100 µM came out at 79.9%.
Consider `CC1CCCCN1CCCNC(=O)c1ccc2c(c1)C(=O)N(Cc1ccccc1F)C2=O` (centres unmarked) [Compound 56, 1-(3-{[2-(2-fluoro-benzyl)-1,3-dioxo-2,3-dihydro-1H-isoindol-5-carbonyl]-amino}-propyl)-2-methyl-piperidinium chloride], for which the inhibition at 100 µM is 78.8%.
On the same count and under the same terms, with `O=C(NCCN1CCCC1)c1ccc2c(c1)C(=O)N(Cc1ccccc1F)C2=O` [Compound 57, 1-(2-{[2-(2-fluoro-benzyl)-1,3-dioxo-2,3-dihydro-1H isoindol-5-carbonyl]-amino}-ethyl)-pyrrolidinium chloride] the figure was 65.5%.
Still for that read-out and setting: next, `O=C(NCCCN1CCCC1)c1ccc2c(c1)C(=O)N(Cc1ccccc1F)C2=O` [Compound 58, 1-(3-{[2-(2-fluoro-benzyl)-1,3-dioxo-2,3-dihydro-1H-isoindol-5-carbonyl]-amino}-propyl)-pyrrolidinium chloride]: 70.6%; `O=C(NCCN1CCOCC1)c1ccc2c(c1)C(=O)N(Cc1ccccc1F)C2=O` [Compound 59, 4-(2-{[2-(2-fluoro-benzyl)-1,3-dioxo-2,3-dihydro-1H-isoindol-5-carbonyl]-amino}-ethyl)-4-morpholinium chloride]: 30.2%.

As a reminder, the inhibition is how much of the control response was suppressed.
